Like-named read-outs stand apart in the source and are kept apart here.

The target of this assay is T1, human α7 nAChR (Homo sapiens, UniProt P36544).
T1 construct: host or cells: HEK
The experiment in a line: Automated patch-clamp electrophysiology functional assay (Assay A). The class given is cell-based. The settings on record: HEK cell line stably expressing human RIC-3 and human α7, IonFlux HT whole-cell population patch, with or without 40 μM acetylcholine. As to the method: The α7 nAChR positive allosteric modulator (PAM) activity of the present compounds may be tested using assays known in the art. The α7 nAChR PAMs described herein have activities in an automated patch-clamp electrophysiology functional assay as described in the examples. The assay was performed using the IonFlux HT in a whole-cell, population patch configuration. See Golden et al. Assay Drug Dev. Technol. (2011) 9:608-619. The compounds were assessed for their ability to modulate the function of the human α7 nAChR stably expressed in a HEK cell line both in the presence, and in the absence of the natural α7 agonist acetylcholine. By performing a series of such measurements at different concentrations, the effective concentration of the α7 nAChR PAMs (EC50) was determined. See Spencer et al. Assay Drug Dev. Technol. (2012) 10:313-324.
Direct activation of α7 (agonism), and potentiation of acetylcholine-evoked α7 currents was determined as follows:
Automated patch-clamp electrophysiology was performed using the IonFlux HT (Fluxion Biosciences Inc., San Francisco, CA) in the whole-cell, population patch configuration. Test compounds were assessed for their ability to modulate the function of the α7 nicotinic acetylcholine receptor both in the presence, and in the absence of the natural α7 agonist acetylcholine. A HEK cell line stably expressing both human RIC-3 and human α7 (PrecisION hnAChR α7/RIC-3, Eurofins Pharma, St. Charles, MO) was cultured in 175 cm^2 triple-layer tissue culture flasks to no more than 90% confluency in DMEM/F-12 growth media supplemented with 10% heat-inactivated fetal bovine serum, 1% non-essential amino acids, 0.625 μg/mL Puromycin, and 400 μg/mL Geneticin. Immediately prior to assay, cells were detached by first aspirating growth media, rinsing with Dulbecco's phosphate buffered saline, and then adding 10 mL of Accutase (Innovative Cell Technologies, San Diego, CA) to the flask and then incubating at 37° C. for 5 minutes. Detached cells were then recovered by the addition of 40 mL of CHO-serum-free media supplemented with 25 mM HEPES, and rocked gently in a 50 mL conical tube for 20 minutes prior to patch-clamp assay. After recovery, cells were pelleted by centrifugation at 1,000 RPM for 1 minute in a compact bench top centrifuge; recovery media was aspirated and cells were resuspended in external recording solution (150 mM NaCl, 5 mM KCl, 2 mM CaCl2, 1 mM MgCl2, 10 mM HEPES, 12 mM dextrose) to a density of 5.0×10^6 cells/mL. The cell suspension was added to the cell inlet wells on an IonFlux HT population patch plate which had previously been rinsed and primed with deionized H2O. Test compounds were serially diluted in DMSO and then resuspended to the final test concentration in external recording solution, with, or without 40 μM acetylcholine added to the external recording solution; test compounds were then transferred to the IonFlux HT population patch plate. Internal recording solution (110 mM TrisPO4, 28 mM TrisBase, 0.1 mM CaCl2, 2 mM MgCl2, 11 mM EGTA, 4 mM MgATP) was added to the internal recording solution inlet wells on the IonFlux HT patch plate previously loaded with cells and test compounds, and the plate loaded into the IonFlux HT instrument. A protocol was executed on the IonFlux HT to trap the cells, break into the cells, and establish the whole-cell recording configuration; cells were voltage-clamped at a holding potential of −60 mV for the duration of the experiment, all experiments were conducted at room temperature, and the IonFlux HT injection pressure was 8 psi for solution applications. Upon establishing the whole-cell configuration, external recording solution was perfused into the recording chambers for 120 seconds and then 40 μM acetylcholine was applied for 1 second and immediately washed off with external recording solution for 60 seconds. […]

T1 sequence (P36544 23-502): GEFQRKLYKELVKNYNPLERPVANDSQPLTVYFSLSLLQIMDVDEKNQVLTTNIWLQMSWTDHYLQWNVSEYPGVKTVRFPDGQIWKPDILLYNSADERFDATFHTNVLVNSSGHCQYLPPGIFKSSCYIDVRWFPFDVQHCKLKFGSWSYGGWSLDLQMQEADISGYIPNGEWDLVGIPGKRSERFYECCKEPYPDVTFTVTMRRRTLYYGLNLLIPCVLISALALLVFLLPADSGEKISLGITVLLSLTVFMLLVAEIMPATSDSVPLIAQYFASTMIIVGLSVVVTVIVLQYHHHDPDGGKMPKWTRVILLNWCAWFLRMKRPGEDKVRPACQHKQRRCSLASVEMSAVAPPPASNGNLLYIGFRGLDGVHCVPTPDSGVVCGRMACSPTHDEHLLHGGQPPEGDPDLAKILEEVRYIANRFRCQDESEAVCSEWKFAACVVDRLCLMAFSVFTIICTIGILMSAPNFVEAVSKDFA

As for `CC(C)(O)c1cccc(OC[C@@H]2CC23CCN(S(N)(=O)=O)CC3)n1` [Example A52, (1R)-1-({[6-(2-hydroxypropan-2-yl)pyridin-2-yl]oxy}methyl)-6-azaspiro[2.5]octane-6-sulfonamide], the EC50 was 480 nM (read-out: α7 nAChR EC50) and 100 to 500 nM (read-out: α7 nAChR Potency).

As for `NS(=O)(=O)N1CCC2(CC1)C[C@H]2COc1cccc(-c2ccccc2)n1` [Example A57, (1R)-1-{[(6-phenylpyridin-2-yl)oxy]methyl}-6-azaspiro[2.5]octane-6-sulfonamide], the EC50 reads like this: (read-out: α7 nAChR EC50) 69 nM; (read-out: α7 nAChR Potency) at most 100 nM.

`NS(=O)(=O)N1CCC2(CC1)CC2CSc1ccc(C(F)(F)F)cc1` (racemic) [Example A43, 1-({[4-(trifluoromethyl)phenyl]sulfanyl}methyl)-6-azaspiro[2.5]octane-6-sulfonamide]: the EC50 (read-out: α7 nAChR EC50) was found to be 1400 nM and the EC50 (read-out: α7 nAChR Potency) lay within 500 to 5000 nM. Consider `COc1ccc(Cl)cc1OCC1C(F)(F)C12CCN(S(N)(=O)=O)CC2` (single isomer, unassigned) [Example A3, 2-[(5-chloro-2-methoxyphenoxy)methyl]-1,1-difluoro-6-azaspiro[2.5]octane-6-sulfonamide], for which the EC50 is, setting by setting: (read-out: α7 nAChR EC50) 1300 nM; (read-out: α7 nAChR Potency) 500 to 5000 nM.

`NS(=O)(=O)N1CCC2(CC1)C[C@H]2COc1cccc(C2CC2)n1` [Example A49]: the EC50 by setting is: (read-out: α7 nAChR EC50) 280 nM; (read-out: α7 nAChR Potency) 100 to 500 nM. Turning to `NS(=O)(=O)N1CCC2(CC1)C(CSc1ccc(C(F)(F)F)cc1)C2(F)F` (single isomer, unassigned) [Example A44, 1,1-difluoro-2-({[4-(trifluoromethyl)phenyl]sulfanyl}methyl)-6-azaspiro[2.5]octane-6-sulfonamide], the EC50 reads like this: (read-out: α7 nAChR EC50) 150 nM; (read-out: α7 nAChR Potency) 100 to 500 nM. As to `COc1ccc(Cl)cc1NC[C@@H]1C(F)(F)C12CCN(S(N)(=O)=O)CC2` [Example A59, (2R)-2-{[(5-chloro-2-methoxyphenyl)amino]methyl}-1,1-difluoro-6-azaspiro[2.5]octane-6-sulfonamide], the EC50 is 22 nM (read-out: α7 nAChR EC50) and at most 100 nM (read-out: α7 nAChR Potency). As for `CC(F)(F)c1cccc(OC[C@@H]2CC23CCN(S(N)(=O)=O)CC3)n1` [Example A56, (1R)-1-({[6-(1,1-difluoroethyl)pyridin-2-yl]oxy}methyl)-6-azaspiro[2.5]octane-6-sulfonamide], the EC50 by setting is: (read-out: α7 nAChR EC50) 740 nM; (read-out: α7 nAChR Potency) 500 to 5000 nM.

As for `NS(=O)(=O)N1CCC2(CC1)C[C@H]2COc1cccc(OC(F)(F)F)c1` [Example A24, (1R)-1-{[3-(trifluoromethoxy)phenoxy]methyl}-6-azaspiro[2.5]octane-6-sulfonamide], the EC50 runs as follows: (read-out: α7 nAChR EC50) 180 nM; (read-out: α7 nAChR Potency) 100 to 500 nM.

As for `NS(=O)(=O)N1CCC2(CC1)C(COc1cc(F)ccc1C(F)(F)F)C2(F)F` (single isomer, unassigned) [Example A8, 1,1-difluoro-2-{[5-fluoro-2-(trifluoromethyl)phenoxy]methyl}-6-azaspiro[2.5]octane-6-sulfonamide], the EC50 is, setting by setting: (read-out: α7 nAChR EC50) 89 nM; (read-out: α7 nAChR Potency) at most 100 nM. As for `COc1ccc(Cl)cc1S(=O)(=O)C[C@@H]1CC12CCN(S(N)(=O)=O)CC2` [Example 12, (1R)-1-{[(5-Chloro-2-methoxyphenyl)sulfonyl]methyl}-6-azaspiro[2.5]octane-6-sulfonamide], the EC50 by setting is: (read-out: α7 nAChR EC50) 1600 nM; (read-out: α7 nAChR Potency) 500 to 5000 nM. For `COc1ccc(Cl)cc1NC(=O)[C@@H]1C(F)(F)C12CCN(S(N)(=O)=O)CC2` [Example 15, (1R)—N-(5-Chloro-2-methoxyphenyl)-2,2-difluoro-6-sulfamoyl-6-azaspiro[2.5]octane-1-carboxamide], in that order: 63 nM and at most 100 nM. Regarding `Cc1cc(OCC2CC23CCN(S(N)(=O)=O)CC3)n(-c2ccccc2)n1` (racemic) [Example A14, 1-{[(3-methyl-1-phenyl-1H-pyrazol-5-yl)oxy]methyl}-6-azaspiro[2.5]octane-6-sulfonamide], the EC50 is 700 nM (read-out: α7 nAChR EC50) and 500 to 5000 nM (read-out: α7 nAChR Potency). Turning to `Cc1ccn(-c2cccc(OC[C@@H]3CC34CCN(S(N)(=O)=O)CC4)n2)n1` [Example A50, (1R)-1-({[6-(3-methyl-1H-pyrazol-1-yl)pyridin-2-yl]oxy}methyl)-6-azaspiro[2.5]octane-6-sulfonamide], the EC50 is, setting by setting: (read-out: α7 nAChR EC50) 250 nM; (read-out: α7 nAChR Potency) 100 to 500 nM. On to `COc1ccc(Cl)cc1NC(=O)[C@H]1C(F)(F)C12CCN(S(N)(=O)=O)CC2` [Example B3, (1S)—N-(5-chloro-2-methoxyphenyl)-2,2-difluoro-6-sulfamoyl-6-azaspiro[2.5]octane-1-carboxamide], for which the EC50 (read-out: α7 nAChR EC50) stood at 1400 nM and the EC50 (read-out: α7 nAChR Potency) was in the range of 500 to 5000 nM. For the molecule `NS(=O)(=O)N1CCC2(CC1)C(COc1ccnc(OC(F)F)c1)C2(F)F` (single isomer, unassigned) [Example 3, 2-({[2-(Difluoromethoxy)pyridin-4-yl]oxy}methyl)-1,1-difluoro-6-azaspiro[2.5]octane-6-sulfonamide], the EC50 was 930 nM (read-out: α7 nAChR EC50) and 500 to 5000 nM (read-out: α7 nAChR Potency). For `COc1cc(OC[C@H]2CC23CCN(S(N)(=O)=O)CC3)ccc1F` [Example A5, (1S)-1-[(4-fluoro-3-methoxyphenoxy)methyl]-6-azaspiro[2.5]octane-6-sulfonamide], in that order: 6200 nM and 5000 to 50000 nM. For `NS(=O)(=O)N1CCC2(CC2COc2noc(-c3ccccc3)n2)C(F)(F)C1` (racemic) [Example A22, 4,4-difluoro-1-{[(5-phenyl-1,2,4-oxadiazol-3-yl)oxy]methyl}-6-azaspiro[2.5]octane-6-sulfonamide], the EC50 runs as follows: (read-out: α7 nAChR EC50) 3100 nM; (read-out: α7 nAChR Potency) 500 to 5000 nM.

As to `COc1cccc(OC[C@@H]2CC23CCN(S(N)(=O)=O)CC3)n1` [Example A51, (1R)-1-{[(6-methoxypyridin-2-yl)oxy]methyl}-6-azaspiro[2.5]octane-6-sulfonamide], the EC50 is 570 nM (read-out: α7 nAChR EC50) and 500 to 5000 nM (read-out: α7 nAChR Potency).

On to `COc1cccc(OCC2CC23CCN(S(N)(=O)=O)CC3)n1` (racemic) [Example A27, 1-{[(6-methoxypyridin-2-yl)oxy]methyl}-6-azaspiro[2.5]octane-6-sulfonamide], for which the EC50 (read-out: α7 nAChR Potency) lay in the range of 500 to 5000 nM. In the case of `NS(=O)(=O)N1CCC2(CC1)C(COc1cccnc1OCC(F)(F)F)C2(F)F` (single isomer, unassigned) [Example A36, 1,1-difluoro-2-({[2-(2,2,2-trifluoroethoxy)pyridin-3-yl]oxy}methyl)-6-azaspiro[2.5]octane-6-sulfonamide], the EC50 reads like this: (read-out: α7 nAChR EC50) 1200 nM; (read-out: α7 nAChR Potency) 500 to 5000 nM.

As to `N#Cc1cccc(OC[C@@H]2CC23CCN(S(N)(=O)=O)CC3)n1` [Example A47, (1R)-1-{[(6-cyanopyridin-2-yl)oxy]methyl}-6-azaspiro[2.5]octane-6-sulfonamide], the EC50 is 1100 nM (read-out: α7 nAChR EC50) and 500 to 5000 nM (read-out: α7 nAChR Potency). For the molecule `NS(=O)(=O)N1CCC2(CC1)CC2COc1ccnc(OC(F)F)c1` (centres unmarked) [Example 1, 1-({[2-(Difluoromethoxy)pyridin-4-yl]oxy}methyl)-6-azaspiro[2.5]octane-6-sulfonamide], the EC50 by setting is: (read-out: α7 nAChR EC50) 730 nM; (read-out: α7 nAChR Potency) 500 to 5000 nM.

Consider `NS(=O)(=O)N1CCC2(CC1)CC2COc1ccccc1OC(F)F` (single isomer, unassigned) [Example A9, 1-{[2-(difluoromethoxy)phenoxy]methyl}-6-azaspiro[2.5]octane-6-sulfonamide], for which the EC50 reads like this: (read-out: α7 nAChR EC50) 650 nM; (read-out: α7 nAChR Potency) 500 to 5000 nM.

The values above are taken from patent US12331022B2, “Spiropiperidine allosteric modulators of nicotinic acetylcholine receptors” (Merck Sharp & Dohme LLC, priority 2019, dated 2025).
